Results taken from patent US20020137929A1, “1 - (3-heterocyclylphenyl) isothiourea, -isourea, -guanidine and -amidine herbicidal agents” (Intellectual Property Department, BASF Aktiengesellschaft, priority 1998, published 2002).

How the values were obtained:
[1] = system: TRZAWR (Wheat, Winter, cv Riband); experiment: Postemergence herbicidal evaluation; type: in vivo, Triticum aestivum; conditions: postemergence
In short: (§1)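 Scores (0–9) reflect plant stand, vigor, malformation, size, chlorosis and general appearance relative to control, read 4 to 5 weeks after treatment and averaged where tests were repeated. Application: about 0.0156–0.500 kg/ha sprayed at 40 psi onto two-week seedlings.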

CASOB (Sicklepod) = experiment: Preemergence herbicidal evaluation; type: in vivo, Cassia obtusifolia; conditions: rated 4-5 weeks after treatment, rating scale 0-9
In short: (§2)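 Seeds were planted in potting soil in cups, then sprayed preemergence with the test compound in aqueous acetone at about 0.0156 to 0.500 kg per hectare. Cups were kept under greenhouse conditions and visually rated 4–5 weeks after treatment on a 0–9 scale against an untreated control.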

SETVI (Foxtail, Green) [2] = experiment: Postemergence herbicidal evaluation; type: in vivo, Setaria viridis; conditions: postemergence
In short: as §1

[3] = system: SAGPY (Arrowhead (Pygmaea)); experiment: Preemergence weed control under flooded paddy conditions; type: in vivo, Sagittaria pygmaea; conditions: rated 3-4 weeks after treatment
In short: (§3)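 First, seeds or propagules go into the top 0.5 cm of silt loam; next, water is held 1.5 to 3 cm over the soil; then compound (50/50 acetone/water) is pipetted into it at about 0.0313 to 0.500 kg/ha; finally plants are rated visually 0-9 after three to four weeks.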

AMBEL (Ragweed, Common) = experiment: Postemergence herbicidal evaluation; type: in vivo, Ambrosia artemisifolia; conditions: postemergence
In short: as §1

SETVI (Foxtail, Green) [4] = experiment: Preemergence herbicidal evaluation; type: in vivo, Setaria viridis; conditions: rated 4-5 weeks after treatment, rating scale 0-9
In short: as §2

ECHCG (Barnyardgrass) = experiment: Postemergence herbicidal evaluation; type: in vivo, Echinochloa crus-galli; conditions: postemergence
In short: as §1

ORYSAT (Rice, Tebonnet) = experiment: Postemergence herbicidal evaluation; type: in vivo, Oryza sativa, (L.) Tebonnet; conditions: postemergence
In short: as §1

[5] = system: GLXMAW (Soybean, Williams); experiment: Postemergence herbicidal evaluation; type: in vivo, Glycine max, (L.) Merr. cv Williams; conditions: postemergence
In short: as §1

MOOVA (Monochoria) = experiment: Preemergence weed control under flooded paddy conditions; type: in vivo, Monochoria vaginalis; conditions: rated 3-4 weeks after treatment
In short: as §3

ABUTH (Velvetleaf) [6] = experiment: Postemergence herbicidal evaluation; type: in vivo, Abutilon theophrasti; conditions: postemergence
In short: as §1

ABUTH (Velvetleaf) [7] = experiment: Preemergence herbicidal evaluation; type: in vivo, Abutilon theophrasti; conditions: rated 4-5 weeks after treatment, rating scale 0-9
In short: as §2

COc1cccc(CN2C(=O)CSC2=Nc2cc(-n3c(=O)cc(C(F)(F)F)n(C)c3=O)c(F)cc2Cl)c1 [Compound 137, 3-{4-Chloro-2-fluoro-5-{[3-(m-methoxybenzyl)-4-oxo-2-thiazolidinylidene]amino}phenyl}-1-methyl-6-(trifluoromethyl)-2,4(1H,3H)-pyrimidinedione]
herbicidal rating TRZAWR ([1]; rate 0.0156 kg/ha): 3.5 | herbicidal rating TRZAWR ([1]; rate 0.0313 kg/ha): 3.0 | herbicidal rating TRZAWR ([1]; rate 0.0625 kg/ha): 4.5 | Preemergence herbicidal rating CASOB (CASOB (Sicklepod); rate 0.0625 kg/ha): 0.0 | Preemergence herbicidal rating CASOB (CASOB (Sicklepod); rate 0.1250 kg/ha): 0.0 | Preemergence herbicidal rating CASOB (CASOB (Sicklepod); rate 0.2500 kg/ha): 0.0 | herbicidal rating SETVI (SETVI (Foxtail, Green) [2]; rate 0.0156 kg/ha): 1.0 | herbicidal rating SETVI (SETVI (Foxtail, Green) [2]; rate 0.0313 kg/ha): 1.0 | herbicidal rating SETVI (SETVI (Foxtail, Green) [2]; rate 0.0625 kg/ha): 3.0 | herbicidal effect rating, SAGPY ([3]; 0.0313 kg/ha): 0.0 | herbicidal effect rating, SAGPY ([3]; 0.0625 kg/ha): 0.0 | herbicidal effect rating, SAGPY ([3]; 0.1250 kg/ha): 0.0 | herbicidal effect rating, SAGPY ([3]; 0.2500 kg/ha): 3.0 | herbicidal rating AMBEL (AMBEL (Ragweed, Common); rate 0.0156 kg/ha): 9.0 | herbicidal rating AMBEL (AMBEL (Ragweed, Common); rate 0.0313 kg/ha): 9.0 | herbicidal rating AMBEL (AMBEL (Ragweed, Common); rate 0.0625 kg/ha): 9.0 | Preemergence herbicidal rating SETVI (SETVI (Foxtail, Green) [4]; rate 0.0625 kg/ha): 0.0 | Preemergence herbicidal rating SETVI (SETVI (Foxtail, Green) [4]; rate 0.1250 kg/ha): 0.0 | Preemergence herbicidal rating SETVI (SETVI (Foxtail, Green) [4]; rate 0.2500 kg/ha): 2.0 | herbicidal rating ECHCG (ECHCG (Barnyardgrass); rate 0.0156 kg/ha): 2.0 | herbicidal rating ECHCG (ECHCG (Barnyardgrass); rate 0.0313 kg/ha): 1.0 | herbicidal rating ECHCG (ECHCG (Barnyardgrass); rate 0.0625 kg/ha): 3.0 | herbicidal rating ORYSAT (ORYSAT (Rice, Tebonnet); rate 0.0156 kg/ha): 3.0 | herbicidal rating ORYSAT (ORYSAT (Rice, Tebonnet); rate 0.0313 kg/ha): 3.0 | herbicidal rating ORYSAT (ORYSAT (Rice, Tebonnet); rate 0.0625 kg/ha): 3.5 | herbicidal rating GLXMAW ([5]; rate 0.0156 kg/ha): 6.0 | herbicidal rating GLXMAW ([5]; rate 0.0313 kg/ha): 5.5 | herbicidal rating GLXMAW ([5]; rate 0.0625 kg/ha): 5.5 | herbicidal effect rating, MOOVA (MOOVA (Monochoria); 0.0313 kg/ha): 4.0 | herbicidal effect rating, MOOVA (MOOVA (Monochoria); 0.0625 kg/ha): 5.0 | herbicidal effect rating, MOOVA (MOOVA (Monochoria); 0.1250 kg/ha): 5.0 | herbicidal effect rating, MOOVA (MOOVA (Monochoria); 0.2500 kg/ha): 8.0 | herbicidal rating ABUTH (ABUTH (Velvetleaf) [6]; rate 0.0156 kg/ha): 9.0 | herbicidal rating ABUTH (ABUTH (Velvetleaf) [6]; rate 0.0313 kg/ha): 9.0 | herbicidal rating ABUTH (ABUTH (Velvetleaf) [6]; rate 0.0625 kg/ha): 9.0 | Preemergence herbicidal rating ABUTH (ABUTH (Velvetleaf) [7]; rate 0.0625 kg/ha): 0.0 | Preemergence herbicidal rating ABUTH (ABUTH (Velvetleaf) [7]; rate 0.1250 kg/ha): 0.0 | Preemergence herbicidal rating ABUTH (ABUTH (Velvetleaf) [7]; rate 0.2500 kg/ha): 9.0
